Assay results: ChEMBL document CHEMBL1201862, “PubChem BioAssay data set” (2004)
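Grown in 96-well plates, cells were treated for 48 hours with each compound at five concentrations. Insufficient inhibition: endpoint recorded as highest concentration tested. At the GI50, growth is halved.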 The source made the active and inactive calls. Cut-off read from the data, not from the text of the source: active = GI50 up to about 1.1 µM and inactive = higher.

Key:
Assay in all cases: NCI anticancer screen, dose series, 48 h
[1] = test system: 786-0
[2] = test system: A498
[3] = test system: A549
[4] = test system: ACHN
[5] = test system: CAKI-1
[6] = test system: CCRF-CEM
[7] = test system: COLO 205
[8] = test system: DU-145
[9] = test system: EKVX
[10] = test system: HCC 2998
[11] = test system: HCT-116
[12] = test system: HCT-15
[13] = test system: HL-60
[14] = test system: HOP-62
[15] = test system: HOP-92
[16] = test system: HT-29
[17] = test system: Hs-578T
[18] = test system: IGROV-1
[19] = test system: K562
[20] = test system: KM12
[21] = test system: LOX IMVI
[22] = test system: M14
[23] = test system: MCF7
[24] = test system: MDA-MB-231
[25] = test system: MDA-MB-435
[26] = test system: MDA-N
[27] = test system: MOLT-4
[28] = test system: NCI-H226
[29] = test system: NCI-H23
[30] = test system: NCI-H460
[31] = test system: NCI-H522
[32] = test system: NCI/ADR-RES
[33] = test system: OVCAR-4
[34] = test system: OVCAR-5
[35] = test system: OVCAR-8
[36] = test system: PC-3
[37] = test system: RPMI-8226
[38] = test system: RXF 393
[39] = test system: SF-268
[40] = test system: SF-295
[41] = test system: SF-539
[42] = test system: SK-MEL-28
[43] = test system: SK-MEL-2
[44] = test system: SK-MEL-5
[45] = test system: SK-OV-3
[46] = test system: SN12C
[47] = test system: SNB-19
[48] = test system: SNB-75
[49] = test system: SR
[50] = test system: T47D
[51] = test system: TK-10
[52] = test system: U-251
[53] = test system: UACC-257
[54] = test system: UACC-62
[55] = test system: UO-31
[56] = test system: Malme-3M
[57] = test system: OVCAR-3
[58] = test system: SW-620
[59] = test system: BT-549

For COc1c(-c2ccc3c(c2)OCO3)oc2cc(O)cc(O)c2c1=O, the GI50 [1] was 38.4 µM (inactive), the GI50 [2] was 21.9 µM (inactive) and the GI50 [3] was 47.3 µM (inactive). For the same molecule, the GI50 [4] was 27 µM (inactive), the GI50 [5] was 27.7 µM (inactive) and the GI50 [6] was 41.4 µM (inactive). For the same molecule, the GI50 [7] was > 100 µM (inactive), the GI50 [8] was 59.3 µM (inactive) and the GI50 [9] was 43.7 µM (inactive). The GI50 [10] was 78.9 µM (inactive), the GI50 [11] was 62.1 µM (inactive) and the GI50 [12] was 55.6 µM. For the same molecule, the GI50 [13] was 41.5 µM (inactive), the GI50 [14] was 18.6 µM (inactive) and the GI50 [15] was 34.3 µM (inactive). The GI50 [16] was 36.6 µM (inactive), the GI50 [17] was 14.3 µM (inactive) and the GI50 [18] was 26.2 µM (inactive). For the same molecule, the GI50 [19] was 45.1 µM (inactive), the GI50 [20] was 64.7 µM (inactive) and the GI50 [21] was 45.4 µM (inactive). For the same molecule, the GI50 [22] was 69.8 µM (inactive), the GI50 [23] was 21.6 µM (inactive) and the GI50 [24] was 97.7 µM (inactive). The GI50 [25] was 45.7 µM (inactive), the GI50 [26] was 62.7 µM (inactive) and the GI50 [27] was 21.2 µM (inactive). For the same molecule, the GI50 [28] was > 100 µM (inactive), the GI50 [29] was 63.4 µM (inactive) and the GI50 [30] was 64 µM (inactive). For the same molecule, the GI50 [31] was 19.2 µM (inactive), the GI50 [32] was 46 µM (inactive) and the GI50 [33] was 29.5 µM (inactive). For the same molecule, the GI50 [34] was > 100 µM (inactive), the GI50 [35] was 45.4 µM (inactive) and the GI50 [36] was 57.3 µM (inactive). For the same molecule, the GI50 [37] was 34 µM (inactive), the GI50 [38] was 14.9 µM (inactive) and the GI50 [39] was 32.6 µM (inactive). The GI50 [40] was 34.4 µM (inactive), the GI50 [41] was 39.6 µM (inactive) and the GI50 [42] was > 100 µM (inactive). The GI50 [43] was > 100 µM (inactive), the GI50 [44] was 56.5 µM (inactive) and the GI50 [45] was 19.6 µM (inactive). For the same molecule, the GI50 [46] was 51.1 µM (inactive), the GI50 [47] was > 100 µM (inactive) and the GI50 [48] was 13.4 µM (inactive). For the same molecule, the GI50 [49] was 22.6 µM (inactive), the GI50 [50] was 12.9 µM (inactive) and the GI50 [51] was 95.1 µM (inactive). For the same molecule, the GI50 [52] was 75.2 µM (inactive), the GI50 [53] was > 100 µM (inactive) and the GI50 [54] was 46.6 µM (inactive). The GI50 [55] was 7.19 µM (inactive).

COc1cc(C(=O)NC(CCN)(c2ccccc2)c2ccccc2)cc(OC)c1OC was tested, and the GI50 [1] was 22.9 µM (inactive), the GI50 [2] was 12.6 µM (inactive) and the GI50 [3] was 21.3 µM (inactive). For the same molecule, the GI50 [4] was 24.8 µM (inactive), the GI50 [5] was 35.4 µM (inactive) and the GI50 [6] was > 10 µM (inactive). For the same molecule, the GI50 [7] was 14.1 µM (inactive), the GI50 [8] was > 31.6 µM (inactive) and the GI50 [9] was > 31.6 µM (inactive). For the same molecule, the GI50 [10] was 13.4 µM (inactive), the GI50 [11] was > 42.4 µM (inactive) and the GI50 [12] was over 31.6 µM. For the same molecule, the GI50 [13] was 12.2 µM (inactive), the GI50 [14] was > 31.6 µM (inactive) and the GI50 [15] was 15.3 µM (inactive). The GI50 [16] was 16.8 µM (inactive), the GI50 [17] was > 56.2 µM (inactive) and the GI50 [18] was 25.1 µM (inactive). The GI50 [19] was 12.9 µM (inactive), the GI50 [20] was 29.2 µM (inactive) and the GI50 [21] was 16.7 µM (inactive). For the same molecule, the GI50 [22] was 13.9 µM (inactive), the GI50 [23] was > 31.6 µM (inactive) and the GI50 [24] was 16.9 µM (inactive). For the same molecule, the GI50 [25] was 16 µM (inactive), the GI50 [26] was 19.2 µM (inactive) and the GI50 [27] was 10.8 µM (inactive). For the same molecule, the GI50 [56] was 13.5 µM (inactive), the GI50 [28] was 30.8 µM (inactive) and the GI50 [29] was 26.3 µM (inactive). For the same molecule, the GI50 [30] was 19.2 µM (inactive), the GI50 [31] was 16.6 µM (inactive) and the GI50 [32] was 42.7 µM (inactive). For the same molecule, the GI50 [57] was 56.8 µM (inactive), the GI50 [33] was 21.2 µM (inactive) and the GI50 [34] was > 87.5 µM (inactive). For the same molecule, the GI50 [35] was > 31.6 µM (inactive), the GI50 [36] was > 100 µM (inactive) and the GI50 [37] was > 10 µM (inactive). For the same molecule, the GI50 [38] was 10.4 µM (inactive), the GI50 [39] was 29.1 µM (inactive) and the GI50 [40] was 21.6 µM (inactive). The GI50 [41] was > 65.2 µM (inactive), the GI50 [42] was 13.8 µM (inactive) and the GI50 [43] was 63.2 µM (inactive). For the same molecule, the GI50 [44] was 13 µM (inactive), the GI50 [45] was > 31.6 µM (inactive) and the GI50 [46] was 21.7 µM (inactive). The GI50 [47] was > 58.5 µM (inactive), the GI50 [48] was 17 µM (inactive) and the GI50 [49] was 15.6 µM (inactive). The GI50 [58] was 29.6 µM (inactive), the GI50 [50] was 23.4 µM (inactive) and the GI50 [51] was 28.8 µM (inactive). For the same molecule, the GI50 [52] was 53.2 µM (inactive), the GI50 [53] was 16.8 µM (inactive) and the GI50 [54] was > 31.6 µM (inactive). For the same molecule, the GI50 [55] was 20.9 µM (inactive).

With COc1cc(CC2CCc3nc(N)nc(N)c3C2)cc(OC)c1OC (stereo unspecified) the GI50 [1] was 0.0536 µM (active), the GI50 [2] was 20.7 µM (inactive) and the GI50 [3] was 0.0927 µM (active). For the same molecule, the GI50 [4] was 0.163 µM (active), the GI50 [59] was 9.55 µM (inactive) and the GI50 [7] was 1.6 µM (inactive). The GI50 [8] was 1.79 µM (inactive), the GI50 [9] was 0.701 µM (active) and the GI50 [10] was 0.621 µM (active). For the same molecule, the GI50 [11] was 0.0457 µM (active), the GI50 [12] was 0.0925 µM and the GI50 [13] was 0.1 µM (active). For the same molecule, the GI50 [14] was 2.05 µM (inactive), the GI50 [15] was 26.5 µM (inactive) and the GI50 [16] was > 34.8 µM (inactive). For the same molecule, the GI50 [17] was > 60.5 µM (inactive), the GI50 [18] was 0.131 µM (active) and the GI50 [19] was 5.3 µM (inactive). For the same molecule, the GI50 [20] was 1.18 µM (inactive), the GI50 [21] was 0.0798 µM (active) and the GI50 [22] was 0.195 µM (active). The GI50 [23] was 0.527 µM (active), the GI50 [25] was 4.24 µM (inactive) and the GI50 [27] was 1.01 µM (active). The GI50 [56] was 0.851 µM (active), the GI50 [28] was > 24.3 µM (inactive) and the GI50 [29] was 0.698 µM (active). The GI50 [30] was 0.0571 µM (active), the GI50 [31] was 0.505 µM (active) and the GI50 [57] was 8.85 µM (inactive). For the same molecule, the GI50 [33] was > 45.6 µM (inactive), the GI50 [34] was 1.36 µM (inactive) and the GI50 [35] was > 32.7 µM (inactive). For the same molecule, the GI50 [36] was 0.13 µM (active), the GI50 [37] was 5.83 µM (inactive) and the GI50 [38] was 0.0422 µM (active). The GI50 [39] was 0.174 µM (active), the GI50 [40] was 0.21 µM (active) and the GI50 [41] was 0.966 µM (active). For the same molecule, the GI50 [42] was > 36.5 µM (inactive), the GI50 [43] was > 38.1 µM (inactive) and the GI50 [44] was 0.0834 µM (active). For the same molecule, the GI50 [45] was 27.6 µM (inactive), the GI50 [46] was 31.1 µM (inactive) and the GI50 [47] was > 22.9 µM (inactive). For the same molecule, the GI50 [48] was 1.55 µM (inactive), the GI50 [49] was 0.236 µM (active) and the GI50 [58] was 0.914 µM (active). The GI50 [50] was 21.6 µM (inactive), the GI50 [51] was > 45.7 µM (inactive) and the GI50 [52] was > 35.2 µM (inactive). For the same molecule, the GI50 [53] was 24.8 µM (inactive) and the GI50 [54] was 0.145 µM (active).
